From patent publication US5229116A, “Administration of pharmaceutical agents” (priority 1989, dated 1993) come the findings set out here.

The nature of the data set: In vivo pharmacokinetic studies of dihydropyridines given orally with water, grapefruit juice or orange juice (plasma concentration, GC analysis). Details: species or system human (healthy subjects, hypertensive patients). Particulars: human, po, mean; for AUC(0-inf): zero to infinity. As for the experimental part:
Hypertensive patients and healthy volunteers were given commercially available formulations of dihydropyridines in the morning after an overnight fast. The tablets were taken either with water, orange juice, or, as a source of flavonoids, 200 ml grapefruit juice. This contains about 150 mg of flavonoids, either as aglycones or glycosides.
The protocols for the five studies are shown on Table 2.
Blood samples for the analysis of the dihydropyridine and the first metabolite were drawn before and at frequent intervals after dose via an indwelling antecubital cannula. Samples were centrifuged and the plasma frozen (-20° C.) until analysis.
The maximum plasma concentration, Cmax, and the corresponding time to reach peak concentration, tmax, were recorded from the individual plasma concentration time curves of the dihydropyridine and its first metabolite. The area from zero to infinity was calculated adding the residual area to the area from zero to last determinable plasma concentration value by using the slope of the log plasma concentration time curve in the 3 to 8 hour interval after dose.

[1] abbreviates: plasma, 10 mg, nitrendipine 10 mg tablets, healthy subjects, n = 3, grapefruit juice.
Where [2] appears, read: plasma, 10 mg, nitrendipine 10 mg tablets, healthy subjects, n = 3, water.
[3] abbreviates: plasma, felodipine ER tablets, healthy subjects, n = 9, grapefruit juice.
Where [4] appears, read: plasma, felodipine ER tablets, healthy subjects, n = 9, water.
Setting [5] is: plasma, felodipine plain tablets, healthy subjects, n = 9, grapefruit juice.
Where [6] appears, read: plasma, felodipine plain tablets, healthy subjects, n = 9, water.
Setting [7] is: plasma, felodipine plain tablets, patients, n = 6, grapefruit juice.
Where [8] appears, read: plasma, felodipine plain tablets, patients, n = 6, orange juice.
Where [9] appears, read: plasma, felodipine plain tablets, patients, n = 6, water.

The term Tmax denotes the time at which the peak concentration occurs. A word on the Cmax: it is the peak of the concentration-time curve. In general, AUC(0-inf) refers to the area under the concentration-time curve extrapolated to infinity. Low values mean low exposure, high ones high exposure.

The structures appear in SMILES notation.

As for `CCOC(=O)C1=C(C)NC(C)=C(C(=O)OC)C1c1cccc([N+](=O)[O-])c1` (stereo not drawn) [Nitrendipine], the Tmax is 1.3 ± 0.5 h (in vivo, 10 mg, nitrendipine 10 mg tablets, healthy subjects, n = 3, grapefruit juice) and 1.5 h (in vivo, 10 mg, nitrendipine 10 mg tablets, healthy subjects, n = 3, water). Also, the Cmax was 8.9 ± 4.8 nM under setting [1] and 3.7 ± 1.8 nM under setting [2]. This molecule also came in with an AUC(0-inf) under setting [1] of 0.035 ± 0.0195 µM·h and an area under the curve AUC(0-inf) under setting [2] of 0.0151 ± 0.0058 µM·h.
`CCOC(=O)C1=C(C)NC(C)=C(C(=O)OC)C1c1cccc(Cl)c1Cl` (stereo not drawn) [Felodipine] displayed a maximum concentration (Cmax) under setting [3] of 8.9 ± 3.3 nM; a Cmax under setting [4] of 3.4 ± 1.6 nM; a Cmax under setting [5] of 16.3 ± 7.1 nM; a Cmax under setting [6] of 6.6 ± 3.6 nM; a Cmax under setting [7] of 28.7 ± 7.6 nM; a Cmax under setting [8] of 16.4 ± 7.8 nM. The same molecule had a Cmax under setting [9] of 13.2 ± 5 nM. For the same molecule, the Tmax was 3.2 ± 0.8 h under setting [3]; 3.4 ± 0.9 h under setting [4]; 2.1 ± 0.9 h under setting [5]; 1.3 ± 0.6 h under setting [6]; 2.1 ± 0.5 h under setting [7]; 1.9 ± 0.1 h under setting [8]. In addition, the Tmax under setting [9] worked out at 1.1 ± 0.5 h. Also, the total exposure AUC(0-inf) came to 0.0478 ± 0.0157 µM·h under setting [3]; 0.0274 ± 0.0123 µM·h under setting [4]; 0.065 ± 0.0263 µM·h under setting [5]; 0.0228 ± 0.0106 µM·h under setting [6]; 0.121 ± 0.045 µM·h under setting [7]; 0.0514 ± 0.0222 µM·h under setting [8]. Under setting [9], this molecule came in with an AUC(0-inf) of 0.0484 ± 0.0237 µM·h.
